Key:
[1] = system: velvetleaf; assay: Test Example 5: herbicidal effect by foliage application, plastic box (Table 20, symbol M); type: in vivo, velvetleaf (Abutilon theophrasti); details: foliage application
Outline: (§1)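 Foliar spray test: emulsion formulation diluted in water to a set application rate, sprayed onto 14-day-old plants raised in diluvial soil at 25° C to 30° C under glass. Both herbicidal effect and crop effect rated visually three weeks later.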

[2] = system: Japanese bulrush; assay: Test Example 1: herbicidal activity, application before weed generation under submerged conditions (Table 16, symbol B); type: in vivo, Japanese bulrush (Schoenoplectus juncoides)
Outline: (§2)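 Alluvial soil was flooded to 4 cm depth, weed seeds were sown mixed and 2.5-leaf rice seedlings were transplanted. On sowing day, the compound's emulsion, diluted in water to a set dose, was applied to the water surface. Plants grew at 25–30 °C and were scored 0–5 after three weeks.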

[3] = system: Chinese sprangletop; assay: Test Example 3: herbicidal effect by foliage application, Wagner pot (Table 18, symbol D); type: in vivo, chinese sprangletop (Leptochloa chinensis); details: amount of applied herbicide 320 g/ha
Outline: (§3)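 Plants were sown in alluvial soil held under 0.1–0.5 cm standing water and grown 14 days in a greenhouse at 25–30 °C. An emulsifiable formulation, water-diluted to the set dose, was then sprayed onto the foliage, and effects were scored three weeks later using previously defined criteria.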

[4] = system: false cleavers; assay: Test Example 4: herbicidal effect by soil treatment (Table 19, symbol Q); type: in vivo, false cleavers (Galium spurium); details: amount of applied herbicide 320 g/ha
Outline: (§4)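 Herbicidal effect was rated 3 weeks after treatment, using the scoring criteria of an earlier test. The compound, formulated as an emulsion and diluted in water to a set herbicide amount, had been sprayed uniformly on soil over freshly sown seeds. Growth took place in a greenhouse at 25° C. to 30° C.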

[5] = system: chickweed; assay: Test Example 5: herbicidal effect by foliage application, plastic box (Table 20, symbol P); type: in vivo, common chickweed (Stellaria media); details: foliage application, AAH 320 g/ha, evaluated three weeks after application
Outline: as §1

[6] = system: redroot pigweed; assay: Test Example 5: herbicidal effect by foliage application, plastic box (Table 20, symbol N); type: in vivo, redroot pigweed (Amaranthus retroflexus); details: foliage application, AAH 320 g/ha, evaluated three weeks after application
Outline: as §1

[7] = system: wild oat; assay: Test Example 4: herbicidal effect by soil treatment (Table 19, symbol I); type: in vivo, wild oat (Avena fatua); details: amount of applied herbicide 320 g/ha
Outline: as §4

[8] = system: persian speedwell; assay: Test Example 5: herbicidal effect by foliage application, plastic box (Table 20, symbol R); type: in vivo, Persian speedwell (Veronica persica); details: foliage application
Outline: as §1

[9] = system: wild oat; assay: Test Example 5: herbicidal effect by foliage application, plastic box (Table 20, symbol I); type: in vivo, wild oat (Avena fatua); details: foliage application
Outline: as §1

[10] = system: Italian ryegrass; assay: Test Example 5: herbicidal effect by foliage application, plastic box (Table 20, symbol K); type: in vivo, Italian ryegrass (Lolium multiflorum); details: foliage application
Outline: as §1

[11] = system: barnyard grass; assay: Test Example 3: herbicidal effect by foliage application, Wagner pot (Table 18, symbol H); type: in vivo, barnyard grass (Echinochloa crus-galli); details: amount of applied herbicide 320 g/ha
Outline: as §3

[12] = system: late watergrass; assay: Test Example 1: herbicidal activity, application before weed generation under submerged conditions (Table 16, symbol A); type: in vivo, late watergrass (Echinochloa oryzicola)
Outline: as §2

[13] = system: southern crabgrass; assay: Test Example 5: herbicidal effect by foliage application, plastic box (Table 20, symbol F); type: in vivo, southern crabgrass (Digitaria ciliaris); details: foliage application
Outline: as §1

[14] = system: green foxtail; assay: Test Example 5: herbicidal effect by foliage application, plastic box (Table 20, symbol G); type: in vivo, green foxtail (Setaria viridis); details: foliage application
Outline: as §1

[15] = system: velvetleaf; assay: Test Example 4: herbicidal effect by soil treatment (Table 19, symbol M); type: in vivo, velvetleaf (Abutilon theophrasti); details: amount of applied herbicide 320 g/ha
Outline: as §4

[16] = system: southern crabgrass; assay: Test Example 4: herbicidal effect by soil treatment (Table 19, symbol F); type: in vivo, southern crabgrass (Digitaria ciliaris); details: amount of applied herbicide 320 g/ha
Outline: as §4

[17] = system: redroot pigweed; assay: Test Example 4: herbicidal effect by soil treatment (Table 19, symbol N); type: in vivo, redroot pigweed (Amaranthus retroflexus); details: amount of applied herbicide 320 g/ha
Outline: as §4

[18] = system: barnyard grass; assay: Test Example 5: herbicidal effect by foliage application, plastic box (Table 20, symbol H); type: in vivo, barnyard grass (Echinochloa crus-galli); details: foliage application
Outline: as §1

[19] = system: windgrass; assay: Test Example 4: herbicidal effect by soil treatment (Table 19, symbol L); type: in vivo, windgrass (Apera spica-venti); details: amount of applied herbicide 320 g/ha
Outline: as §4

[20] = system: Italian ryegrass; assay: Test Example 4: herbicidal effect by soil treatment (Table 19, symbol K); type: in vivo, Italian ryegrass (Lolium multiflorum); details: amount of applied herbicide 320 g/ha
Outline: as §4

[21] = system: barnyard grass; assay: Test Example 4: herbicidal effect by soil treatment (Table 19, symbol H); type: in vivo, barnyard grass (Echinochloa crus-galli); details: amount of applied herbicide 320 g/ha
Outline: as §4

[22] = system: blackgrass; assay: Test Example 4: herbicidal effect by soil treatment (Table 19, symbol J); type: in vivo, blackgrass (Alopecurus myosuroides); details: amount of applied herbicide 320 g/ha
Outline: as §4

[23] = system: chickweed; assay: Test Example 4: herbicidal effect by soil treatment (Table 19, symbol P); type: in vivo, common chickweed (Stellaria media); details: amount of applied herbicide 320 g/ha
Outline: as §4

[24] = system: rice flat sedge; assay: Test Example 3: herbicidal effect by foliage application, Wagner pot (Table 18, symbol E); type: in vivo, rice flat sedge (Cyperus iria); details: amount of applied herbicide 320 g/ha
Outline: as §3

[25] = system: oval-leafed pondweed; assay: Test Example 1: herbicidal activity, application before weed generation under submerged conditions (Table 16, symbol C); type: in vivo, oval-leafed pondweed (Monochoria vaginalis)
Outline: as §2

[26] = system: blackgrass; assay: Test Example 5: herbicidal effect by foliage application, plastic box (Table 20, symbol J); type: in vivo, blackgrass (Alopecurus myosuroides); details: foliage application
Outline: as §1

[27] = system: lambsquarters; assay: Test Example 4: herbicidal effect by soil treatment (Table 19, symbol O); type: in vivo, lambsquarters (Chenopodium album); details: amount of applied herbicide 320 g/ha
Outline: as §4

[28] = system: windgrass; assay: Test Example 5: herbicidal effect by foliage application, plastic box (Table 20, symbol L); type: in vivo, windgrass (Apera spica-venti); details: foliage application
Outline: as §1

[29] = system: persian speedwell; assay: Test Example 4: herbicidal effect by soil treatment (Table 19, symbol R); type: in vivo, Persian speedwell (Veronica persica); details: amount of applied herbicide 320 g/ha
Outline: as §4

[30] = system: green foxtail; assay: Test Example 4: herbicidal effect by soil treatment (Table 19, symbol G); type: in vivo, green foxtail (Setaria viridis); details: amount of applied herbicide 320 g/ha
Outline: as §4

[31] = system: lambsquarters; assay: Test Example 5: herbicidal effect by foliage application, plastic box (Table 20, symbol O); type: in vivo, lambsquarters (Chenopodium album); details: foliage application
Outline: as §1

[32] = AAH 320 g/ha, evaluated three weeks after application
[33] = 320 g/ha, three weeks after application
[34] = amount of applied herbicide 320 g/ha

COCCOCOc1c(C)nn(C)c(=O)c1-c1c(-c2ccc(OC(F)F)cc2)sc2ccc(F)cc12 [2-307]
M: velvetleaf, herbicidal effect (criteria 0-5) [1, 32]: 5 (Herbicidal rate of 90% or more (almost completely withered))
Herbicidal effect on B: Japanese bulrush (grade 0-5) ([2]; 320 g/ha applied herbicide): 3 (Herbicidal rate of 40% or more and less than 70%)
herbicidal effect on D: Chinese sprangletop [3]: 5 (Herbicidal rate of 90% or more (almost completely withered))
herbicidal effect on Q: false cleavers [4]: 0 (Herbicidal rate of 5% or less (almost no effect))
P: chickweed, herbicidal effect (criteria 0-5) [5]: 5 (Herbicidal rate of 90% or more (almost completely withered))
N: redroot pigweed, herbicidal effect (criteria 0-5) [6]: 5 (Herbicidal rate of 90% or more (almost completely withered))
herbicidal effect on I: wild oat [7]: 0 (Herbicidal rate of 5% or less (almost no effect))
R: persian speedwell, herbicidal effect (criteria 0-5) [8, 32]: 5 (Herbicidal rate of 90% or more (almost completely withered))
I: wild oat, herbicidal effect (criteria 0-5) [9, 32]: 3 (Herbicidal rate of 40% or more and less than 70%)
K: Italian ryegrass, herbicidal effect (criteria 0-5) [10, 32]: 5 (Herbicidal rate of 90% or more (almost completely withered))
herbicidal effect on H: barnyard grass [11]: 5 (Herbicidal rate of 90% or more (almost completely withered))
Herbicidal effect on A: late watergrass (grade 0-5) ([12]; 320 g/ha applied herbicide): 0 (Herbicidal rate of 5% or less (almost no effect))
F: southern crabgrass, herbicidal effect (criteria 0-5) [13, 32]: 2 (Herbicidal rate of 20% or more and less than 40%)
G: green foxtail, herbicidal effect (criteria 0-5) [14, 32]: 5 (Herbicidal rate of 90% or more (almost completely withered))
herbicidal effect on M: velvetleaf [15]: 0 (Herbicidal rate of 5% or less (almost no effect))
herbicidal effect on F: southern crabgrass [16]: 4 (Herbicidal rate of 70% or more and less than 90%)
herbicidal effect on N: redroot pigweed [17]: 5 (Herbicidal rate of 90% or more (almost completely withered))
H: barnyard grass, herbicidal effect (criteria 0-5) [18, 32]: 5 (Herbicidal rate of 90% or more (almost completely withered))
herbicidal effect on L: windgrass [19]: 0 (Herbicidal rate of 5% or less (almost no effect))
herbicidal effect on K: Italian ryegrass [20]: 1 (Herbicidal rate of 5% or more and less than 20%)
herbicidal effect on H: barnyard grass [21]: 3 (Herbicidal rate of 40% or more and less than 70%)
herbicidal effect on J: blackgrass [22]: 2 (Herbicidal rate of 20% or more and less than 40%)
herbicidal effect on P: chickweed [23]: 3 (Herbicidal rate of 40% or more and less than 70%)
herbicidal effect on E: rice flat sedge [24]: 4 (Herbicidal rate of 70% or more and less than 90%)
Herbicidal effect on C: oval-leafed pondweed (grade 0-5) ([25]; 320 g/ha applied herbicide): 0 (Herbicidal rate of 5% or less (almost no effect))
J: blackgrass, herbicidal effect (criteria 0-5) [26, 32]: 4 (Herbicidal rate of 70% or more and less than 90%)
herbicidal effect on O: lambsquarters [27]: 5 (Herbicidal rate of 90% or more (almost completely withered))
L: windgrass, herbicidal effect (criteria 0-5) [28, 32]: 3 (Herbicidal rate of 40% or more and less than 70%)
herbicidal effect on R: persian speedwell [29]: 5 (Herbicidal rate of 90% or more (almost completely withered))
herbicidal effect on G: green foxtail [30]: 4 (Herbicidal rate of 70% or more and less than 90%)
O: lambsquarters, herbicidal effect (criteria 0-5) [31, 32]: 5 (Herbicidal rate of 90% or more (almost completely withered))

Cc1nn(C)c(=O)c(-c2c(-c3ccc(OC(F)F)cc3)oc3ccc(F)cc23)c1O [9-031]
herbicidal effect on velvetleaf (M) [1, 33]: 5 (Herbicidal rate of 90% or more (almost completely withered))
Herbicidal effect, B: Japanese bulrush [2, 34]: 0 (Herbicidal rate of 5% or less (almost no effect))
Herbicidal effect on D (Chinese sprangletop), foliage application [3]: 1 (Herbicidal rate of 5% or more and less than 20%)
Q: false cleavers, herbicidal effect grade [4]: 3 (Herbicidal rate of 40% or more and less than 70%)
I: wild oat, herbicidal effect grade [7]: 0 (Herbicidal rate of 5% or less (almost no effect))
herbicidal effect on persian speedwell (R) [8, 33]: 5 (Herbicidal rate of 90% or more (almost completely withered))
herbicidal effect on wild oat (I) [9, 33]: 4 (Herbicidal rate of 70% or more and less than 90%)
herbicidal effect on Italian ryegrass (K) [10, 33]: 5 (Herbicidal rate of 90% or more (almost completely withered))
Herbicidal effect on H (barnyard grass), foliage application [11]: 5 (Herbicidal rate of 90% or more (almost completely withered))
Herbicidal effect, A: late watergrass [12, 34]: 2 (Herbicidal rate of 20% or more and less than 40%)
herbicidal effect on southern crabgrass (F) [13, 33]: 4 (Herbicidal rate of 70% or more and less than 90%)
herbicidal effect on green foxtail (G) [14, 33]: 5 (Herbicidal rate of 90% or more (almost completely withered))
M: velvetleaf, herbicidal effect grade [15]: 2 (Herbicidal rate of 20% or more and less than 40%)
F: southern crabgrass, herbicidal effect grade [16]: 4 (Herbicidal rate of 70% or more and less than 90%)
N: redroot pigweed, herbicidal effect grade [17]: 5 (Herbicidal rate of 90% or more (almost completely withered))
herbicidal effect on barnyard grass (H) [18, 33]: 4 (Herbicidal rate of 70% or more and less than 90%)
L: windgrass, herbicidal effect grade [19]: 4 (Herbicidal rate of 70% or more and less than 90%)
K: Italian ryegrass, herbicidal effect grade [20]: 5 (Herbicidal rate of 90% or more (almost completely withered))
H: barnyard grass, herbicidal effect grade [21]: 4 (Herbicidal rate of 70% or more and less than 90%)
J: blackgrass, herbicidal effect grade [22]: 0 (Herbicidal rate of 5% or less (almost no effect))
P: chickweed, herbicidal effect grade [23]: 4 (Herbicidal rate of 70% or more and less than 90%)
Herbicidal effect on E (rice flat sedge), foliage application [24]: 5 (Herbicidal rate of 90% or more (almost completely withered))
Herbicidal effect, C: oval-leafed pondweed [25, 34]: 0 (Herbicidal rate of 5% or less (almost no effect))
herbicidal effect on blackgrass (J) [26, 33]: 4 (Herbicidal rate of 70% or more and less than 90%)
O: lambsquarters, herbicidal effect grade [27]: 3 (Herbicidal rate of 40% or more and less than 70%)
herbicidal effect on windgrass (L) [28, 33]: 4 (Herbicidal rate of 70% or more and less than 90%)
R: persian speedwell, herbicidal effect grade [29]: 5 (Herbicidal rate of 90% or more (almost completely withered))
G: green foxtail, herbicidal effect grade [30]: 4 (Herbicidal rate of 70% or more and less than 90%)
herbicidal effect on lambsquarters (O) [31, 33]: 5 (Herbicidal rate of 90% or more (almost completely withered))
